From ChEMBL document CHEMBL3507680, “University of Dundee, Gates Library screen for HepG2 cell viability” come the findings set out here.

SMILES strings stand for the structures.

The data set can be described thus: Human HepG2 cell viability assay in 384 well format. Format: toxicity, cell-based. Further details: dose 125 nL, time 70.5 hour; cytotoxicity at 70.5 h: concentration not given beside the values. As to conditions: HepG2 cells, read-out: Inhibition.

As for `COc1ccc(S(=O)(=O)N2CCC[C@@H]3CN(C(=O)C4CC4)C[C@@H]32)cc1F`, the cytotoxicity at 70.5 h is 21.2%.
Regarding `CCc1cccc2cc(CNCCOC)c(=O)[nH]c12`, the cytotoxicity at 70.5 h amounted to 21.7%.
Turning to `COc1ccc(S(=O)(=O)N2CCC[C@@H]3CN(C(=O)C4CC4)C[C@@H]32)cc1`, the cytotoxicity at 70.5 h was determined as 50%.
In the case of `O=C(C1CCCC1)N1CCCC([C@@H]2C[C@H](C(F)F)n3ncnc3N2)C1` (some centres undefined), the cytotoxicity at 70.5 h is -6.92%.
Then `COc1ccccc1CC(=O)N1CCN(Cc2ccco2)C[C@@H]1C`, with -2.18%.
Then `Cn1cc(CN2CCC(c3cc(COc4ccc(Cl)cc4)[nH]n3)C2)cn1` (centres undefined), with 0.81%.
The value for `CO[C@H]1CN(Cc2nc3ccccc3n2C)CC[C@@]12CCCO2` was -4.2%.
Take `CNC(=O)CCc1cc(C)nc(C2CCN(C3CCCCC3)CC2)c1`: the cytotoxicity at 70.5 h was -0.853%.
Then `CNC(=O)CCc1cc(C)nc(C2CCN(C(=O)CN(C)C)CC2)c1`, with -3.32%; and `O=C(c1cnc(O)c(Cl)c1)N1CCCC(c2nccs2)C1` (centres undefined), with 6.3%; and `Cc1ncccc1C(=O)N1CCC2(CCc3ccccc3C(=O)N2)C1` (centres undefined), with 15.5%.
Then `COc1ccc2c(c1)CC(C1CCOCC1)N(C(=O)c1ccn(C)n1)C2` (centres undefined), with 2.06%; and `CC(C)c1cc(C(=O)N2CCC3(CCc4ccccc4C(=O)N3)C2)no1` (centres undefined), with 8.79%; and `Cc1ccc(-c2nnc(C3CCCN3S(=O)(=O)c3cnn(C)c3C)o2)s1` (centres undefined), with 2.03%.
The value for `CN(C)C(=O)c1c[nH]nc1-c1ccc(CNC(=O)c2cnccn2)cc1` was -1.73%.
In the case of `CC(C)c1nccn1CCC(=O)N1CCCCC1c1ccn[nH]1` (centres undefined), the cytotoxicity at 70.5 h amounted to 3.76%.
The value for `COc1ccc(CN(C)CC2(O)CCNC2)cc1` (centres undefined) was 0.252%; that for `O=C(CC1CCCC1)N1CCCC1c1ccc(CN2CCOCC2)cn1` (centres undefined) was -0.855%.
Then `CCc1nccn1CCC(=O)N1CCCC1c1cncc(NC)n1` (centres undefined), with 5.43%; and `Cc1ncsc1C(=O)NCc1ccc(-c2n[nH]cc2C(=O)N(C)C)cc1`, with -1.47%.
With `Nc1nc(N)c2c(n1)OC1(CCN(C(=O)CC3CCCCN3)CC1)C2` (centres undefined), the cytotoxicity at 70.5 h is -5.34%.
For the compound `Cc1cc(N2CCCC(c3nccnc3N(C)C)C2)ncn1` (centres undefined), the cytotoxicity at 70.5 h was -2.83%.
As to `Cc1nc(Nc2ncccn2)cc(C2CCCN2C2CCOCC2)n1` (centres undefined), the cytotoxicity at 70.5 h is 1.98%.
On to `CN(C)C(=O)C1CN(Cc2ccccc2)CCN(S(C)(=O)=O)C1` (centres undefined), for which the cytotoxicity at 70.5 h is -6.37%.
On to `CNc1cc(C2CCCN2Cc2ccccc2C(=O)O)ccn1` (centres undefined), for which the cytotoxicity at 70.5 h was -9.85%.
Then `CN(C)c1cncc(C2CCN(C(=O)CO)CC2)n1`, with -22.6%; and `Cc1nc(Nc2nccs2)cc(C2CCCN2C2CCOCC2)n1` (centres undefined), with -8.39%.
Then `Cc1ccc(S(=O)(=O)N2C[C@H]3C[C@H](NC(=O)c4ccnn4C)[C@H]3C2)cc1`, with 46.1%; and `CN1CCCC(Cc2cncc(C(=O)NCC3CC3)c2)C1` (centres undefined), with -1.13%.
The value for `CC(=O)N1CCN(C)CC(COCc2ccccc2)C1` (centres undefined) was -3.41%.
In the case of `CC(C)C1=NOC2(CCN(Cc3c[nH]c4ccccc34)CC2)C1`, the cytotoxicity at 70.5 h turned out to be 4.04%.
Then `Cc1cccc(N2Cc3c(NC4CCCC4)ncnc3N(C)CC2=O)c1`, with -4.33%; and `Cc1ccc2nc(C3CCCN(Cc4ccccc4)C3)nc(O)c2c1` (centres undefined), with 0.432%.
Regarding `O=C1Nc2ccccc2CNC12CCN(CC1CCNC1)CC2` (centres undefined), the cytotoxicity at 70.5 h was -11%.
The value for `O=C1Nc2ccccc2CNC12CCN(CC1CCCC1)CC2` was -7.54%; that for `CC(=O)N1CCC2(CC1)CC(C(C)C)=NO2` was -9.06%; that for `COc1ccccc1-c1cc(C(=O)N(C)C)c2cnn(C)c2n1` was -11.2%.
Regarding `NCCCC(=O)N1CCC2(CC1)CN(C(=O)c1ccc(Cl)cc1)CCO2`, the cytotoxicity at 70.5 h was -12.4%.
The value for `O=C(C1CCCC1)N1CC2(CCN(C3COC3)C2)OCc2ccccc21` (centres undefined) was -17.3%.
On to `O=C(C1CCCC1)N1CC2(CCN(C3COC3)CC2)Cc2ccccc21`, for which the cytotoxicity at 70.5 h is -21%.
The value for `O=C(NC1CCCCC1)N1CCn2c(nnc2C2CCCN2)C1` (centres undefined) was -12.5%.
Then `Cc1cc(C(=O)NCc2ccc(F)cc2)c2c(C3CCCN3)noc2n1` (centres undefined), with -6.52%; and `Cc1cc(C(=O)NCC(C)C)c2c(C3CCCN3)noc2n1` (centres undefined), with -5.52%.
Turning to `O=C(C1CCCC1)N1CCn2c(nnc2C2CCCNC2)C1` (centres undefined), the cytotoxicity at 70.5 h was -3.22%.
The value for `O=C(c1ccc(Cl)cc1)N1CCn2c(nn(-c3ccc(Cl)cc3)c2=O)C1` was -1.63%; that for `O=C(c1ccc(Cl)cc1)N1CCn2c(nn(-c3ccncc3)c2=O)C1` was -8.19%.
Then `O=C(c1ccc(Cl)cc1)N1CC2(CCNC2)OCc2ccccc21` (centres undefined), with -5.43%; and `O=C(NC1CC1)C1CCc2nnc(-c3cccc(C(F)(F)F)c3)n21` (centres undefined), with -11.5%; and `O=C1CC2(CCN(C(=O)c3ccccc3)C2)Nc2ccccc2N1` (centres undefined), with -17.8%.
Consider `COc1ccccc1-c1nc(C(=O)N(C)C)n2ccncc12`, for which the cytotoxicity at 70.5 h was -8.75%.
With `O=C1NC2(Cc3ccccc31)CN(CC1CCNC1)C2` (centres undefined), the cytotoxicity at 70.5 h was -11.5%.
Then `O=C1NC2(Cc3ccccc31)CN(CC1CCCC1)C2`, with -11.8%; and `O=C1NC2(Cc3ccccc31)CN(CC1CCNCC1)C2`, with 12.6%.
Take `CC(C)CNC(=O)c1cc(C2CC2)nc2c1c(C1CCCN1)nn2C` (centres undefined): the cytotoxicity at 70.5 h was determined as 13.8%.
As for `CC(=O)N1CC2(CCCCN2Cc2ccc(Cl)cc2)Cc2ccccc21` (centres undefined), the cytotoxicity at 70.5 h was found to be 5.47%.
For the compound `CC(=O)N1CC2(CCCN(Cc3ccc(Cl)cc3)C2)Cc2ccccc21` (centres undefined), the cytotoxicity at 70.5 h is 5.61%.
Then `CC(=O)N1CC2(CCN(Cc3ccc(Cl)cc3)CC2)Cc2ccccc21`, with 9.92%.
Then `O=C(NCc1cccnc1)c1ccc2nccn2c1`, with 1.82%; and `O=S1(=O)NC2(CCCN(Cc3ccc(Cl)cc3)C2)COc2ccccc21` (centres undefined), with 22.5%; and `O=S1(=O)NC2(CCCN(Cc3ccc(F)cc3)C2)COc2ccccc21` (centres undefined), with -3.88%.
Then `CN(C)C(=O)c1nc(-c2ccc(S(C)(=O)=O)cc2)c2ccccn12`, with -12.8%.
Regarding `O=C(N1CCCCC1)N1CCN(c2ccc(Cl)nn2)C(=O)C1`, the cytotoxicity at 70.5 h is -5.68%.
The value for `Cc1ccc(CCN2CCCC23Cc2ccccc2CNC3=O)cc1` (centres undefined) was -4.38%; that for `Cc1cc(C)c(CN2CCCC23Cc2ccccc2CNC3=O)c(C)c1` (centres undefined) was -9.48%.
Then `CNCc1ccc([C@@H]2CN(C)C[C@H]2C(N)=O)cc1`, with 19.9%; and `CNCc1ccc([C@@H]2CN(C(C)=O)C[C@H]2C(N)=O)cc1`, with -7.99%; and `Cc1noc2nc(C3CCN(Cc4cccnc4)CC3)cc(C(F)F)c12`, with -3.96%.
In the case of `Cc1nc[nH]c1CN(Cc1ccccc1)C1CC(C)(C)NC(C)(C)C1`, the cytotoxicity at 70.5 h amounted to 4.53%.
Then `Cc1cccc(CN2CCC(c3csc4nccn34)CC2)n1`, with 0.645%.
